In patent publication US20260092071A1, “COMPOUNDS AND COMPOSITIONS AS SMARCA2/4 DEGRADERS AND USES THEREOF” (REGENTS OF THE UNIVERSITY OF MICHIGAN, priority 2022, published 2026):

Experiments:
[1] = target: SMARCA2 (Homo sapiens, UniProt P51531); assay: HiBiT assay for protein degradation, Hela SMARCA2-HiBiT cells (A series); type: cell-based; design: Hela cells were genetically modified via CRISPR/Cas9 to fuse HiBiT to the carboxy terminus of SMARCA2; host or cells: HeLa (CRISPR/Cas9 HiBiT knock-in); conditions: Hela SMARCA2-HiBiT cells, 24 hours treatment; for DC50: read-out: SMARC A2 Hela HiBit DC50; for Dmax: read-out: SMARC A2 Hela HiBit Dmax (%);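 as to SMARC A2 Hela HiBit Dmax (%): 24 h compound treatment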
Chain of SMARCA2 (P51531 whole entry, the tested form may be a part): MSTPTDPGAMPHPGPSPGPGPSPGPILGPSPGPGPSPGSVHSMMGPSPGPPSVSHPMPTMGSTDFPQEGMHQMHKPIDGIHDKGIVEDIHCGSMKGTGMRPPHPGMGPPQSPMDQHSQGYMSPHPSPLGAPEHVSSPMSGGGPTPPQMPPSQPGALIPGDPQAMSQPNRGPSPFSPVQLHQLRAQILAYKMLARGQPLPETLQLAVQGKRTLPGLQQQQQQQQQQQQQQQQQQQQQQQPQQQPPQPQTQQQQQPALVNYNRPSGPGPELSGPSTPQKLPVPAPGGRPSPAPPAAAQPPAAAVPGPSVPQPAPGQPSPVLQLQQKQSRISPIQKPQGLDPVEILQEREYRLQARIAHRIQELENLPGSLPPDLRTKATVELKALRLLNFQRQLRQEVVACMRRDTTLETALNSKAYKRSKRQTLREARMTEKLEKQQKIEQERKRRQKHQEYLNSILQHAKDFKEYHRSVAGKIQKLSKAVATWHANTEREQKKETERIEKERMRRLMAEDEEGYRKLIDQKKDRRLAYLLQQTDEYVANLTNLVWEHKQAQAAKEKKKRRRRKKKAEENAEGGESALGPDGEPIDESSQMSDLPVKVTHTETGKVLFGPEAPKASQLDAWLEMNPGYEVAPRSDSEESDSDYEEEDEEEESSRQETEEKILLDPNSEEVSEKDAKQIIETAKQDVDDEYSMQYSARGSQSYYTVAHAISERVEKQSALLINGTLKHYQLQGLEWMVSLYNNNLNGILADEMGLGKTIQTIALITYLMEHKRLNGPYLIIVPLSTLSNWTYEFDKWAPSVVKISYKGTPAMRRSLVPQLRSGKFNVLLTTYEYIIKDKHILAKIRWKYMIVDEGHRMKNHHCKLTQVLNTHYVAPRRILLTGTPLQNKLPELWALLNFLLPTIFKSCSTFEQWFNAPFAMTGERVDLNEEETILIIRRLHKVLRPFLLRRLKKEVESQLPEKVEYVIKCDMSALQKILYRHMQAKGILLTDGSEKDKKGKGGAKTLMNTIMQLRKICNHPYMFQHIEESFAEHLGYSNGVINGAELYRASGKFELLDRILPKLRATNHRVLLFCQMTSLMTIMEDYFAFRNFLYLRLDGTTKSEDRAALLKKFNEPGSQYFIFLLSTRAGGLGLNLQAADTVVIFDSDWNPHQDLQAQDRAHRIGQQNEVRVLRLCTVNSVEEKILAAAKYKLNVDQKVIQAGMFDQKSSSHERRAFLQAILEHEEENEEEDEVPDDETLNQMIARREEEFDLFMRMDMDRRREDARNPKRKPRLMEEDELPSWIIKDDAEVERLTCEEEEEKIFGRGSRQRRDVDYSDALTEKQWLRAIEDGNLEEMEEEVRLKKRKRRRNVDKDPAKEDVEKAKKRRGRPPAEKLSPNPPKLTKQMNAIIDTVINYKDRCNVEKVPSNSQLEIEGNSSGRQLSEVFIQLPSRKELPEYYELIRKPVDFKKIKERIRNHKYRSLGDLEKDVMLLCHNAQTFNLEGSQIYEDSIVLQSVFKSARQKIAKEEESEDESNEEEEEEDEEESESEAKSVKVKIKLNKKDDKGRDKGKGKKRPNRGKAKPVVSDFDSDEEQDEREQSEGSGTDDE
Procedure, shortened: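 HeLa cells engineered by CRISPR/Cas9 to carry a HiBiT tag fused to the C-terminus of SMARCA2 (Promega CS302365) were grown in DMEM supplemented with FBS and penicillin-streptomycin. After treatment, remaining SMARCA2 protein was quantified with the Nano-Glo® HiBiT Lytic Detection Assay (Promega N3050), and curves were fitted in GraphPad Prism.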

[2] = target: SMARCA4 (Homo sapiens, UniProt P51532); assay: HiBiT assay for protein degradation, Hela SMARCA4-HiBiT cells (A series); type: cell-based; design: fuse HiBiT to the carboxy terminus of SMARCA2 (Promega CS302365) or SMARCA4 (Promega CS3023225); host or cells: HeLa (CRISPR/Cas9 HiBiT knock-in); conditions: Hela SMARCA4-HiBiT cells, 24 hours treatment; for DC50: read-out: SMARC A4 Hela HiBit DC50; for Dmax: read-out: SMARC A4 Hela HiBit Dmax
Chain of SMARCA4 (P51532 whole entry, the tested form may be a part): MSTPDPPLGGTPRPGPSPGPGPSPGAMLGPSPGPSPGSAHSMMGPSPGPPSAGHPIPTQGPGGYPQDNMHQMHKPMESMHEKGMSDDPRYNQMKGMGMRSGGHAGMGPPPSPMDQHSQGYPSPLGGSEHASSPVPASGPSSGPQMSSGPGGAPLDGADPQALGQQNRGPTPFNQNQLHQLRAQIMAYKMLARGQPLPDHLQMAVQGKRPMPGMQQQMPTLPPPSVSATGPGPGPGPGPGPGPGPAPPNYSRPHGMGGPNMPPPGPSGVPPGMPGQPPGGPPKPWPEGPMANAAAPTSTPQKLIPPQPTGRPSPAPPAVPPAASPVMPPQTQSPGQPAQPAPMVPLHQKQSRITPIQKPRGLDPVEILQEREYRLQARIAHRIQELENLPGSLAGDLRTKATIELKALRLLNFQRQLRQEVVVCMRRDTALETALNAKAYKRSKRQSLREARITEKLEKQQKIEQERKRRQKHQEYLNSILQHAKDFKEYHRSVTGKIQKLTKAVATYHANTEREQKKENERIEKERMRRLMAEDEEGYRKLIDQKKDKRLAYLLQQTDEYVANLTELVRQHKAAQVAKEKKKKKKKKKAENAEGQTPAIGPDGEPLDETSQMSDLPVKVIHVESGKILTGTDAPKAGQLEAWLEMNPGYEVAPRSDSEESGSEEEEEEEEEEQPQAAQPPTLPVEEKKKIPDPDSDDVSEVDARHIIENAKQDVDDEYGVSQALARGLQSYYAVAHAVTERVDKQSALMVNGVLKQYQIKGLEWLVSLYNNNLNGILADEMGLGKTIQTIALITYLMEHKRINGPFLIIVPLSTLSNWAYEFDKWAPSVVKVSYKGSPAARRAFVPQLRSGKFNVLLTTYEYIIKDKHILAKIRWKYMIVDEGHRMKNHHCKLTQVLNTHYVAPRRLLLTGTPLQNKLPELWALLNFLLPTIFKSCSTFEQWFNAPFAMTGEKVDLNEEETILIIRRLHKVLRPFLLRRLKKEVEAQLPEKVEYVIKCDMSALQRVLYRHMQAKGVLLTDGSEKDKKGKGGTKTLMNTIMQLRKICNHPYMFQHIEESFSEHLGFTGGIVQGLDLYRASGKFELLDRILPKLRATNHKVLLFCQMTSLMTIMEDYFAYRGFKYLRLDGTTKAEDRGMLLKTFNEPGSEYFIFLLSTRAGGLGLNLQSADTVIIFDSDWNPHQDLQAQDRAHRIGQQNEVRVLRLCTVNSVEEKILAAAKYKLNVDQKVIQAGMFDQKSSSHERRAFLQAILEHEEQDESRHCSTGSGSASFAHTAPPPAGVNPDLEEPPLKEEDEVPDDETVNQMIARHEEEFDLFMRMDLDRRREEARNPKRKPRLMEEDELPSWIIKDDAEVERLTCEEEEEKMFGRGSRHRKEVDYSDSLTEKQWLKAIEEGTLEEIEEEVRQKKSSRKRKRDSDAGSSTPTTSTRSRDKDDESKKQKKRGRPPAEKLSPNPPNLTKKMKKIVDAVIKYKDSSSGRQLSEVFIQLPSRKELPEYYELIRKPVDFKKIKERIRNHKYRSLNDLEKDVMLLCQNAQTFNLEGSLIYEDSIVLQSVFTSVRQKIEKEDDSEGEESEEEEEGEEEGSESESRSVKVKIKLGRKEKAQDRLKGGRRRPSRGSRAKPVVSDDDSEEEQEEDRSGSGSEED
Procedure, shortened: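 HeLa cells engineered by CRISPR/Cas9 to carry a HiBiT tag fused to the C-terminus of SMARCA4 (Promega CS3023225) were grown in DMEM supplemented with FBS and penicillin-streptomycin. After compound exposure, remaining SMARCA4 protein was quantified using the Nano-Glo® HiBiT Lytic Detection Assay (Promega N3050), and curves were fitted in GraphPad Prism.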

[3] = test system: SMARCA4-deficient cancer cell lines; conditions: pharmacological studies; cited from earlier work

DC50 [1] [nM]	Dmax [1] [%]	DC50 [2] [nM]	Dmax [2] [%]	SMILES	antiproliferative phenotype [3]
< 10	> 90	> 1000	< 50	CC(C)(C)[C@@H](C(=O)N1C[C@H](O)C[C@H]1C(=O)N[C@@H](CN1CCOCC1)c1ccc(-c2ccccn2)cc1)n1cc([C@H]2CC[C@H](CN3CCC(c4ccc5c(c4)-n4c(nc(=O)c6c(Cl)cccc64)C54CCCCC4)CC3)CC2)nn1 [Compound A173, (2S,4R)-1-((S)-2-(4-((1r,4S)-4-((4-(4′-chloro-5′-oxo-5′H-spiro[cyclohexane-1,7′-indolo[1,2-a]quinazolin]-10′-yl)piperidin-1-yl)methyl)cyclohexyl)-1H-1,2,3-triazol-1-yl)-3,3-dimethylbutanoyl)-4-hydroxy-N—((R)-2-morpholino-1-(4-(pyridin-2-yl)phenyl)ethyl)pyrrolidine-2-carboxamide]	–
< 10	> 90	> 1000	< 50	Cc1ncccc1-c1ccc([C@H](CN2CCOCC2)NC(=O)[C@@H]2C[C@@H](O)CN2C(=O)[C@@H](n2cc([C@H]3CC[C@H](CN4CCC(c5ccc6c(c5)-n5c(nc(=O)c7c(Cl)cccc75)C65CCCCC5)CC4)CC3)nn2)C(C)(C)C)cc1 [Compound A174, (2S,4R)-1-((S)-2-(4-((1r,4S)-4-((4-(4′-chloro-5′-oxo-5′H-spiro[cyclohexane-1,7′-indolo[1,2-a]quinazolin]-10′-yl)piperidin-1-yl)methyl)cyclohexyl)-1H-1,2,3-triazol-1-yl)-3,3-dimethylbutanoyl)-4-hydroxy-N—((R)-1-(4-(2-methylpyridin-3-yl)phenyl)-2-morpholinoethyl)pyrrolidine-2-carboxamide]	–
< 10	> 90	> 1000	< 50	Cc1ccncc1-c1ccc([C@H](CN2CCOCC2)NC(=O)[C@@H]2C[C@@H](O)CN2C(=O)[C@@H](n2cc([C@H]3CC[C@H](CN4CCC(c5ccc6c(c5)-n5c(nc(=O)c7c(Cl)cccc75)C65CCCCC5)CC4)CC3)nn2)C(C)(C)C)cc1 [Compound A175]	–
–	–	–	–	O=C(/C=C/N1C[C@H]2C[C@@H]1CN2c1ccccn1)c1ccccc1O [PFI-3]	fail to display an antiproliferative phenotype
